Assay results from PMC9516332 (Frontiers in Oncology, 2022).
Read-outs that look alike come from different tables or passages of the source.

What was measured:
[1] = target: panel of 255 wild-type kinases (Homo sapiens, UniProt O75582); assay: Kinase panel profiling at 1 µmol/L (MSA or IMAP), percentage inhibition; format: biochemical; details: MSK1; 1 µmol/L single concentration; read-out: %-inhibition, MSK1
[2] = target: panel of 255 wild-type kinases (Homo sapiens, UniProt P22607); assay: as above; format: biochemical; details: kinase FGFR3; 1 µmol/L single concentration; read-out: %-inhibition at 1 µmol/L, FGFR3
[3] = target: panel of 255 wild-type kinases (Homo sapiens, UniProt P45983); assay: as above; format: biochemical; details: kinase JNK1; 1 µmol/L single concentration; read-out: %-inhibition at 1 µmol/L, JNK1
[4] = target: panel of 255 wild-type kinases (Homo sapiens, UniProt P49760); assay: as above; format: biochemical; details: kinase CLK2; 1 µmol/L single concentration; read-out: %-inhibition at 1 µmol/L, CLK2
[5] = target: panel of 255 wild-type kinases (Homo sapiens, UniProt P50613); assay: as above; format: biochemical; details: CDK7/CycH/MAT1 kinase assay; 1 µmol/L single concentration; read-out: %-inhibition CDK7/CycH/MAT1
[6] = target: panel of 255 wild-type kinases (Homo sapiens, UniProt Q00526); assay: as above; format: biochemical; details: CDK3/CycE1 kinase assay; 1 µmol/L single concentration; read-out: %-inhibition CDK3/CycE1
[7] = target: panel of 255 wild-type kinases (Homo sapiens, UniProt Q13177); assay: as above; format: biochemical; details: PAK2; 1 µmol/L single concentration; read-out: %-inhibition, PAK2
[8] = target: panel of 255 wild-type kinases (Homo sapiens, UniProt Q96RG2); assay: as above; format: biochemical; details: PASK; 1 µmol/L single concentration; read-out: %-inhibition, PASK
[9] = target: panel of 255 wild-type kinases (Homo sapiens, UniProt Q9HBH9); assay: as above; format: biochemical; details: MNK2; 1 µmol/L single concentration; read-out: %-inhibition, MNK2
[10] = tested on: AP-1060 (ETV6-NTRK3); assay: Cell viability assay; details: read-out: IC50 in cell proliferation assay
[11] = tested on: 134 cancer cell lines; assay: Cell viability assay (ATPlite, 72 hours), IC50 on cancer cell line panel

C=CC(=O)N1CCC([C@@H]2CCNc3c(C(N)=O)c(-c4ccc(Oc5ccccc5)cc4)nn32)CC1 [zanubrutinib]
inhibition at 1 µM [1]: 0.565%
inhibition at 1 µM [2]: 4.61%
inhibition at 1 µM [3]: -3.49%
inhibition at 1 µM [4]: 7.62%
inhibition at 1 µM [5]: -9%
inhibition at 1 µM [6]: 2.65%
inhibition at 1 µM [7]: 10%
inhibition at 1 µM [8]: -2.55%
inhibition at 1 µM [9]: -5%
IC50 [10]: > 31.6 µM
IC50 ([11]; HEC-6, read-out: IC50 in cell proliferation assay): 0.355 µM
IC50 ([11]; Homo sapiens, 769-P, read-out: IC50 in cell proliferation assay): 4.48 µM
IC50 ([11]; Homo sapiens, 786-0, read-out: IC50 in cell proliferation assay): 2.19 µM
IC50 ([11]; Homo sapiens, A 172, read-out: IC50 in cell proliferation assay): > 31.6 µM
IC50 ([11]; Homo sapiens, A204, read-out: IC50 in cell proliferation assay): 27.9 µM
IC50 ([11]; Homo sapiens, A498, read-out: IC50 in cell proliferation assay): 5.51 µM
IC50 ([11]; Homo sapiens, A549, read-out: IC50 in cell proliferation assay): 24.7 µM
IC50 ([11]; Homo sapiens, A704, read-out: IC50 in cell proliferation assay): > 31.6 µM
IC50 ([11]; Homo sapiens, A-375, read-out: IC50 in cell proliferation assay): > 31.6 µM
IC50 ([11]; Homo sapiens, A-427, read-out: IC50 in cell proliferation assay): 8.55 µM
IC50 ([11]; Homo sapiens, ACHN, read-out: IC50 in cell proliferation assay): 2.75 µM
IC50 ([11]; Homo sapiens, AN3-CA, read-out: IC50 in cell proliferation assay): 29.8 µM
IC50 ([11]; Homo sapiens, ASPC1, read-out: IC50 in cell proliferation assay): 7.83 µM
IC50 ([11]; Homo sapiens, AU565, read-out: IC50 in cell proliferation assay): 0.303 µM
IC50 ([11]; Homo sapiens, BT-20, read-out: IC50 in cell proliferation assay): 15.1 µM
IC50 ([11]; Homo sapiens, BT-474, read-out: IC50 in cell proliferation assay): 0.213 µM
IC50 ([11]; Homo sapiens, BT-549, read-out: IC50 in cell proliferation assay): 12 µM
IC50 ([11]; Homo sapiens, BXPC-3, read-out: IC50 in cell proliferation assay): 3.04 µM
IC50 ([11]; Homo sapiens, C-33-A, read-out: IC50 in cell proliferation assay): 1.1 µM
IC50 ([11]; Homo sapiens, CAL-27, read-out: IC50 in cell proliferation assay): 1.37 µM
IC50 ([11]; Homo sapiens, CCF-STTG1, read-out: IC50 in cell proliferation assay): > 31.6 µM
IC50 ([11]; Homo sapiens, CCRF-CEM, read-out: IC50 in cell proliferation assay): 13.2 µM
IC50 ([11]; Homo sapiens, COLO 205, read-out: IC50 in cell proliferation assay): > 31.6 µM
IC50 ([11]; Homo sapiens, COLO-829, read-out: IC50 in cell proliferation assay): > 31.6 µM
IC50 ([11]; Homo sapiens, DLD-1, read-out: IC50 in cell proliferation assay): > 31.6 µM
IC50 ([11]; Homo sapiens, DU-145, read-out: IC50 in cell proliferation assay): 1.05 µM
IC50 ([11]; Homo sapiens, DU-4475, read-out: IC50 in cell proliferation assay): 18.1 µM
IC50 ([11]; Homo sapiens, Daoy, read-out: IC50 in cell proliferation assay): 23.4 µM
IC50 ([11]; Homo sapiens, DoTc2-4510, read-out: IC50 in cell proliferation assay): 1.5 µM
IC50 ([11]; Homo sapiens, EOL1, read-out: IC50 in cell proliferation assay): 2.74 µM
IC50 ([11]; Homo sapiens, FaDu, read-out: IC50 in cell proliferation assay): 0.751 µM
IC50 ([11]; Homo sapiens, G-361, read-out: IC50 in cell proliferation assay): 31.4 µM
IC50 ([11]; Homo sapiens, HCC827, read-out: IC50 in cell proliferation assay): 1.33 µM
IC50 ([11]; Homo sapiens, HCC4006, read-out: IC50 in cell proliferation assay): 1.36 µM
IC50 ([11]; Homo sapiens, HCT-15, read-out: IC50 in cell proliferation assay): 15.7 µM
IC50 ([11]; Homo sapiens, HCT-116, read-out: IC50 in cell proliferation assay): > 31.6 µM
IC50 ([11]; Homo sapiens, HEC-1, read-out: IC50 in cell proliferation assay): > 31.6 µM
IC50 ([11]; Homo sapiens, HEC-1B, read-out: IC50 in cell proliferation assay): 5.59 µM
IC50 ([11]; Homo sapiens, HL-60, read-out: IC50 in cell proliferation assay): > 31.6 µM
IC50 ([11]; Homo sapiens, HT, read-out: IC50 in cell proliferation assay): > 31.6 µM
IC50 ([11]; Homo sapiens, HT-1080, read-out: IC50 in cell proliferation assay): > 31.6 µM
IC50 ([11]; Homo sapiens, Hs746T, read-out: IC50 in cell proliferation assay): > 31.6 µM
IC50 ([11]; Homo sapiens, Hs-578T, read-out: IC50 in cell proliferation assay): 28.4 µM
IC50 ([11]; Homo sapiens, HuTu80, read-out: IC50 in cell proliferation assay): 0.961 µM
IC50 ([11]; Homo sapiens, J82, read-out: IC50 in cell proliferation assay): > 31.6 µM
IC50 ([11]; Homo sapiens, Jurkat E6.1, read-out: IC50 in cell proliferation assay): 19.1 µM
IC50 ([11]; Homo sapiens, K562, read-out: IC50 in cell proliferation assay): > 31.6 µM
IC50 ([11]; Homo sapiens, KATO III, read-out: IC50 in cell proliferation assay): 5.47 µM
IC50 ([11]; Homo sapiens, KG-1, read-out: IC50 in cell proliferation assay): 2.85 µM
IC50 ([11]; Homo sapiens, KLE, read-out: IC50 in cell proliferation assay): 2.73 µM
IC50 ([11]; Homo sapiens, KMS-11, read-out: IC50 in cell proliferation assay): 22.6 µM
IC50 ([11]; Homo sapiens, KU812, read-out: IC50 in cell proliferation assay): 12.3 µM
